Experimental data reported in patent US20230115298A1, “METHOD FOR CONTROLLING THE GROWTH OF UNDESIRABLE VEGETATION” (UPL Limited, priority 2021, published 2023).

System: weedy Glycine max
Assay: Greenhouse trials, post-emergence herbicidal efficacy of L-glufosinate, other herbicides and their combinations (observed vs Colby expected)
Type: in vivo
Details: for Control %: Table 1
Description: Greenhouse trials were carried out to evaluate the efficacy of the combination of L-glufosinate and the other herbicides on weedy Glycine max. The soil used was sandy clay loam—Sand: 68.0%; Silt: 8.0%; Clay: 24.0%. All treatments were in 3 replications per treatment with a spray volume of […].
The expected efficacy of a combination of L-glufosinate and the other herbicides was calculated using the well-established Colby method. Any difference between the observed and “expected” efficacy could be attributed to synergy between the two compounds.
In the Colby method, the expected (or predicted) response of a combination of herbicides is calculated by taking the product of the observed response for each individual component of the combination when applied alone, divided by 100, and subtracting this value from the sum of the observed response for each component when applied alone. An unexpected enhancement in efficacy of the combination is then determined by comparing the observed response of the combination to the expected (or predicted) response as calculated from the observed response of each individual component alone. If the observed response of the combination is greater than the expected (or predicted) response, or stated conversely, if the difference between the observed and expected response is greater than zero, then the combination is said to be synergistic or unexpectedly effective (Colby, S. R., Weeds, 1967(15), p. 20-22). The Colby method requires only a single dose of each herbicide applied alone and the mixture of both doses. The formula used to calculate the expected efficacy (EE) which was compared with the observed efficacy (OE) to determine the efficacy of the present invention is explained hereinbelow:
The expected efficacy for a combination of two active ingredients is as follows:
The expected efficacy for a combination of three active ingredients is as follows:
[…] The target weed was weedy Glycine max, and the concentration of the herbicide and the results are recorded in the table 1 below:

[1] = 14 DAA, dose a.i. g/h: L-glufosinate 150, oxyfluorfen 107.1, imazethapyr 75, carfentrazone 7.5
[2] = 21 DAA, dose a.i. g/h: L-glufosinate 150, oxyfluorfen 107.1, imazethapyr 75, carfentrazone 7.5
[3] = 28 DAA, dose a.i. g/h: L-glufosinate 150, oxyfluorfen 107.1, imazethapyr 75, carfentrazone 7.5
[4] = 35 DAA, dose a.i. g/h: L-glufosinate 150, oxyfluorfen 107.1, imazethapyr 75, carfentrazone 7.5

O=C(O)COc1nc(Cl)c(Cl)cc1Cl [Triclopyr, triclopyr]
% control (Table 5, 7 DAA, g ai/h: L-glufosinate 150, triclopyr 288): 50% | % control (Table 5, 14 DAA, g ai/h: L-glufosinate 150, triclopyr 288): 79.3%

CC(Oc1ccc(Oc2ncc(C(F)(F)F)cc2Cl)cc1)C(=O)O (stereo not shown) [Haloxyfop, haloxyfop]
% control (Table 7, 3 DAA, g ai/h: L-glufosinate 150, haloxyfop 50): 5% | % control (Table 7, 7 DAA, g ai/h: L-glufosinate 150, haloxyfop 50): 13.3% | % control (Table 7, 14 DAA, g ai/h: L-glufosinate 150, haloxyfop 50): 15% | % control (Table 7, 21 DAA, g ai/h: L-glufosinate 150, haloxyfop 50): 12.3% | % control (Table 7, 28 DAA, g ai/h: L-glufosinate 150, haloxyfop 50): 12.3% | % control (Table 7, 35 DAA, g ai/h: L-glufosinate 150, haloxyfop 50): 12.3%

O=C(O)COc1ccc(Cl)cc1Cl [2,4-D]
% control (Table 4, 7 DAA, g ai/h: L-glufosinate 150, 2,4-D 204): 41.7% | % control (Table 4, 14 DAA, g ai/h: L-glufosinate 150, 2,4-D 204): 42.7% | % control (Table 4, 21 DAA, g ai/h: L-glufosinate 150, 2,4-D 204): 50.7% | % control (Table 4, 28 DAA, g ai/h: L-glufosinate 150, 2,4-D 204): 53.3% | % control (Table 4, 35 DAA, g ai/h: L-glufosinate 150, 2,4-D 204): 48.3%

CCc1cnc(C2=NC(C)(C(C)C)C(=O)N2)c(C(=O)O)c1 (stereo not shown) [Imazethapyr, imazethapyr]
Control % [1]: 10% | Control % [2]: 20.0% | Control % [3]: 20.0% | Control % [4]: 15.0%

Cc1nn(-c2cc(CC(Cl)C(=O)O)c(Cl)cc2F)c(=O)n1C(F)F (stereo not shown) [Carfentrazone, carfentrazone]
Control % [1]: 50.3% | Control % (14 DAA, dose a.i. g/h: carfentrazone 9.0, L-glufosinate 150): 51.7% | Control % [2]: 44.3% | Control % (21 DAA, dose a.i. g/h: carfentrazone 9.0, L-glufosinate 150): 51.0% | Control % [3]: 44.3% | Control % (28 DAA, dose a.i. g/h: carfentrazone 9.0, L-glufosinate 150): 51.0% | Control % [4]: 39.3% | Control % (35 DAA, dose a.i. g/h: carfentrazone 9.0, L-glufosinate 150): 46.7%

CCOc1cc(Oc2ccc(C(F)(F)F)cc2Cl)ccc1[N+](=O)[O-] [Oxyfluorfen, oxyfluorfen]
Control % [1]: 46.7% | Control % [2]: 45.0% | Control % [3]: 43.3% | Control % [4]: 35.0%

O=C(O)CNCP(=O)(O)O [Glyphosate, glyphosate]
% control (Table 2, 3 DAA, g ai/h: L-glufosinate 150, glyphosate 379): 0% | % control (Table 2, 7 DAA, g ai/h: L-glufosinate 150, glyphosate 379): 0% | % control (Table 2, 14 DAA, g ai/h: L-glufosinate 150, glyphosate 379): 0% | % control (Table 2, 21 DAA, g ai/h: L-glufosinate 150, glyphosate 379): 0% | % control (Table 2, 28 DAA, g ai/h: L-glufosinate 150, glyphosate 379): 0% | % control (Table 2, 35 DAA, g ai/h: L-glufosinate 150, glyphosate 379): 0%

C#CCN1C(=O)COc2cc(F)c(N3C(=O)C4=C(CCCC4)C3=O)cc21 [Flumioxazin, flumioxazin]
% control (Table 3, 3 DAA, g ai/h: L-glufosinate 150, flumioxazin 30): 7.7% | % control (Table 3, 7 DAA, g ai/h: L-glufosinate 150, flumioxazin 30): 31.7% | % control (Table 3, 21 DAA, g ai/h: L-glufosinate 150, flumioxazin 30): 40% | % control (Table 3, 28 DAA, g ai/h: L-glufosinate 150, flumioxazin 30): 40% | % control (Table 3, 35 DAA, g ai/h: L-glufosinate 150, flumioxazin 30): 30%

CCSC(C)CC1CC(=O)C(/C(CC)=N/OC/C=C/Cl)=C(O)C1 (stereo not shown) [Clethodim, clethodim]
% control (Table 6, 3 DAA, g ai/h: L-glufosinate 150, clethodim 45): 0% | % control (Table 6, 7 DAA, g ai/h: L-glufosinate 150, clethodim 45): 0% | % control (Table 6, 14 DAA, g ai/h: L-glufosinate 150, clethodim 45): 0% | % control (Table 6, 21 DAA, g ai/h: L-glufosinate 150, clethodim 45): 0% | % control (Table 6, 28 DAA, g ai/h: L-glufosinate 150, clethodim 45): 0% | % control (Table 6, 35 DAA, g ai/h: L-glufosinate 150, clethodim 45): 0%
